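Compound exposure: 48 hours, 5 concentrations, 96-well plates. The concentration for full growth arrest is given as TGI.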 Peptide text beside a SMILES is read from it. * marks the point of attachment. OSu = O=C1CCC(=O)N1O*; OBn = c1ccc(CO*)cc1; Bn = c1ccc(C*)cc1
Legend:
Assay in all cases: growth of human tumour cells (NCI), 48 h
SF-539 CNS = tested on: SF-539 CNS
DU-145 prostate = tested on: DU-145 prostate
EKVX NSCLC = tested on: EKVX NSCLC
SF-268 CNS = tested on: SF-268 CNS
NCI-H226 lung = tested on: NCI-H226 lung
COLO 205 colon = tested on: COLO 205 colon
HS 578T breast = tested on: HS 578T breast
OVCAR-3 ovarian = tested on: OVCAR-3 ovarian
NCI-H522 lung = tested on: NCI-H522 lung
SNB-75 CNS = tested on: SNB-75 CNS

| SMILES | TGI (SF-539 CNS) [µM] | TGI (DU-145 prostate) [µM] | TGI (EKVX NSCLC) [µM] | TGI (SF-268 CNS) [µM] | TGI (NCI-H226 lung) [µM] | TGI (COLO 205 colon) [µM] | TGI (HS 578T breast) [µM] | TGI (OVCAR-3 ovarian) [µM] | TGI (NCI-H522 lung) [µM] | TGI (SNB-75 CNS) [µM] |
| --- | --- | --- | --- | --- | --- | --- | --- | --- | --- | --- |
| Cc1nc2sccn2c1C(=O)OCCOCCOCCOCCOC(=O)c1c(C)nc2sccn12 | > 100 | > 100 | > 100 | > 100 | > 100 | > 100 | > 100 | > 100 | > 100 |  |
| COc1cc(C2c3cc4c(cc3OC(N3CCOCC3)C2C)OCO4)cc(OC)c1OC(C)=O (configuration not stated) | 40.2 | > 92.5 | > 100 | > 100 | 62.7 | 52 | 25.7 | 59.4 | 33.2 | 25.2 |
| COc1cnnc2c(C)c(-c3ccccc3)nn12 | > 100 | > 100 | > 100 | > 100 | > 100 | > 100 | > 100 | > 100 | > 100 | > 100 |
| Cc1ccc(NC(=O)CC(=O)N2N=C(c3ccccc3)C(N=Nc3ccc(S(=O)(=O)CCOS(=O)(=O)O)cc3)C2=O)cc1 (configuration not stated) | > 100 | > 100 | > 100 | > 100 | > 100 | > 100 | > 100 | > 100 | > 100 | > 100 |
| Cc1[nH]c(=O)[nH]c(=O)c1C(=O)N(CCO)Cc1ccccc1 | > 100 | > 100 | > 100 | > 100 | 43.9 | 45.7 | 41.9 | > 100 | > 100 |  |
| O=C1CC(Cl)c2c(Cl)sc(Cl)c21 (configuration not stated) | 8.32 | 7.13 | 16.4 | 5.51 | 28.8 | 3.7 | > 27.9 |  | 4.51 | 22.8 |
| CC(CN(C)C)C(=O)/C=C/c1ccc(Cl)c(Cl)c1 (configuration not stated) |  | > 100 | 3.11 | 4.14 | 5.57 | 2.58 | 29 | 3.87 | 3.24 | 51.1 |
| COC1=CCC2=C(CCN(C(=O)C3CCC3)C2Cc2ccc(OC)c(O)c2)C1 (configuration not stated) | > 100 | 51.9 | 88.9 | > 100 | > 100 | 32.1 | 66.6 | 27.4 | 42 | 35.9 |
| CC(C)CC(NC(=O)C(N)CCC(=O)OCc1ccccc1)C(=O)NC(COCc1ccccc1)C(=O)NC(Cc1ccccc1)C(=O)ON1C(=O)CCC1=O (configuration not stated) (H-E(OBn)LS(Bn)F-OSu; configuration not given here) |  | > 100 | > 100 | > 100 |  |  | 76.1 |  | 47.8 | > 100 |
| CC(C)(CN1CCCCC1)C(=O)/C=C/c1c(Cl)cccc1Cl | 6.71 | 2.44 | 3.24 | 3.88 | 9.88 | 3.05 | 8.8 | 2.4 | 0.913 | 2.38 |
| Cc1cnc2[nH]c(-c3cccc(Cl)c3)cc(=O)c2c1 | 0.0658 | > 57.8 | > 100 | 34.5 | 87.3 | > 37.1 | 20.5 | 0.0755 | 15 | 36.2 |
| Cc1nc(N)nc(N)c1N1CCN(Cc2ccccc2)CC1 | > 100 | > 100 | > 100 | > 100 | > 100 | > 100 | > 100 | > 100 | > 93.5 | > 100 |
| CCOC(=O)/C=C(/C(=O)OCC)n1ccc(=O)[nH]c1=O | 34.8 | 29 | 23 | 39.6 | 14.5 | 3.99 | 37.9 | 12.8 | 2.72 | 29.2 |
| c1ccc2nn(C3CCCCO3)nc2c1 (configuration not stated) | > 100 | > 100 | > 100 | > 100 | > 100 | > 100 | > 100 | > 100 | > 100 | > 100 |
| CCOC(=O)O/N=C1/C(c2c(O)[nH]c3ccccc23)=Nc2ccccc21 |  | 13.3 | 13.5 | 68.2 |  | 28.8 | 51.8 | 8 | 30.2 | 11.4 |
| OC1(c2ccc(Cl)cc2)c2ccccc2C2=NCc3ccccc3CN21 (configuration not stated) | 24.4 | 34.7 | 20.6 | 25.3 | 20.8 | 19 | 32.5 | 6.33 | 27.7 | 19.4 |
| CCOC(=O)C12C(=O)CCN1CCc1ccccc1C2C (configuration not stated) | > 100 | > 100 | > 100 | > 100 | > 100 | > 100 | > 100 | > 100 | > 100 |  |
| CC12CCC(C1)C(C)(C)C2OC(=O)c1ccccc1C(=O)O (configuration not stated) |  | > 100 | > 100 | > 100 | > 100 | > 100 | > 100 |  | > 100 | > 100 |
| O=Cc1cc(O)c(O)c(/C=N/n2c3ccccc3c3ccccc32)c1 | 24.7 | 49 | 43.5 | 20 | 33.2 | 26.3 | > 100 | 10.1 | 7.03 | 9.76 |
| O=C1C(CN2CCCC2)CCCC1CN1CCCC1 (configuration not stated) | 16.1 | 34.2 | 13.7 | 52.3 | 59.1 | 3.07 | 72.6 | 9.62 | 0.29 | 35.6 |
| Cc1nc2ccccc2cc1C[N+]12CN3CN(CN(C3)C1)C2 | 64.5 | 82.1 | 50 | 51 | 52.8 | 28.8 | > 100 | 86.2 | 38.2 | 35.6 |
| O=C(CCC(=O)OCC1OC(O)(CC2OC(CO)C(O)C(O)C2O)C(O)C1O)OCc1ccccc1 (configuration not stated) | > 100 | > 100 | > 100 | > 100 | > 100 | > 100 | > 100 | > 100 | > 100 | > 100 |

From PubChem BioAssay (NCI)
